Laboratory results from publication PMC6315362, “Cytotoxic Potential of the Novel Horseshoe Crab Peptide Polyphemusin III” (Marine Drugs, 2018).
Where “and” joins values, the source holds several entries; their conditions need not be identical. Equal values may be shown once. Where a SMILES comes first, the peptide text is derived from it. Bridges are numbered along the chain shown (N, C = ends).

Key:
K. pneumoniae (CI 287) = assay: Antimicrobial assay, broth microdilution MIC; format: cell-based, Klebsiella pneumoniae; settings: Gram -, MH medium with NaCl, 24 h 37 °C, median of three independent triplicated experiments
Experimental: (§1) Bacterial test cultures were grown in the Mueller-Hinton (MH) medium at 37 °C to mid-log phase and then diluted with the 2 x MH medium supplemented with 1.8% NaCl. 50 µL of the bacterial suspension with a final cell concentration of 10^6 CFU/mL were added to aliquots of 50 µL of the peptide solutions and serially diluted with sterilized 0.1% bovine serum albumin in 96-well flat-bottom polystyrene microplates (Eppendorf, Hamburg, Germany). Bacterial cells were incubated for 24 h at 37 °C and 900 rpm on the plate thermoshaker (Biosan, Riga, Latvia). The minimum inhibitory concentrations (MIC) were determined as the lowest peptide concentration that prevented growth of a test microorganism observed as visible turbidity. The results were expressed as median values of three independent triplicated experiments. Assessment of antimicrobial activities of the recombinant PM III, other polyphemusins, and tachyplesins was conducted against Gram-negative (Escherichia coli ML-35p, Klebsiella pneumoniae (clinical isolate, CI 287), Pseudomonas aeruginosa PAO1) and Gram-positive (Staphylococcus aureus ATCC 29213, Staphylococcus aureus 209P, Bacillus subtilis B-886, Micrococcus luteus B-1314) bacteria.

[1] = tested on: HL-60 (acute promyelocytic leukemia); format: cell-based, human; settings: MTT after 48 h, RPMI-1640 with 10% FBS, mean ± SD of at least three independent experiments
Experimental: (§2) Cytotoxic activities of PM III, its isoforms, and tachyplesins against seven human cell lines were evaluated. Four cancer (HL-60 acute promyelocytic leukemia, HeLa cervix adenocarcinoma, SK-BR-3 breast adenocarcinoma, A549 lung carcinoma), one transformed (HEK 293T transformed human embryonic kidney), and two normal human cell lines (HEF human embryonic fibroblasts and NHA normal human astrocytes) were used for these experiments. Cytotoxicity was measured by incubating the cells with serial dilutions of PM I, PM II, PM III, TP I, TP II, or TP III samples followed by MTT assay after 48 h. The half-maximal inhibitory concentrations (IC50) were measured as the peptide concentration at which cell viability was reduced by 50% in comparison to untreated cells (Table 3).
(§3) The following tumor and transformed cell lines were used in this study: HL-60 (acute promyelocytic leukemia), HeLa (human cervix adenocarcinoma cells), SK-BR-3 (human breast adenocarcinoma cells), A549 (human lung carcinoma cells), HEK 293T (transformed human embryonic kidney cells), HEF (human embryonic fibroblasts), and NHA (normal human astrocytes) were used as normal cell lines. Tumor and transformed cell lines were obtained from the American Type Culture Collection (ATCC; www.atcc.org). Primary cells HEF (normal human embryonic fibroblasts derived from human embryonic stem cells) and NHA (normal human astrocytes derived from human fetal brain tissue) were obtained and cultured according to the corresponding protocol. Briefly, cells were cultured in DMEM/F12 (1:1) or RPMI-1640 medium containing 10% fetal bovine serum (Invitrogen, USA) at 37 °C in the atmosphere containing 5% CO2 and 95% air according to standard mammalian tissue culture protocols and using a sterile technique. All cell lines were tested by using the LookOut® Mycoplasma PCR Detection Kit (Sigma-Aldrich, St. Louis, MO, USA) according to the manufacturer’s protocol and found to be free of Mycoplasma infection.
(§4) The colorimetric 3-(4,5-dimethylthiazol-2-yl)-2,5-diphenyltetrazolium bromide (MTT) dye reduction assay was used to determine the cytotoxicity of the polyphemusins and tachyplesins. Cells (3 × 10^3–6 × 10^3 per well) were placed into 96-well plates in Dulbecco’s modified Eagle’s medium (DMEM/F12) supplemented with 10% fetal bovine serum (FBS). After incubation in the atmosphere containing 5% CO2 and 95% air at 37 °C overnight, the media were discarded, and polyphemusins or tachyplesins solutions were added to the cell cultures up to final concentrations of 2.5, 5, 10, 25, and 50 μM in a final volume of 0.1 mL DMEM/F12 with 10% FBS. HL-60 cells (4 × 10^4 in 50 μL) were added to two-time serial dilutions of polyphemusins solutions at a final concentration of 1.25, 2.5, 5, 10, 25, and 50 μM in 50 μL RPMI-1640 with 10% FBS. 48 hours later, 20 μL of MTT (5 mg/mL) was added into each well and the plates were incubated for 3 h at 37 °C. The plates with HL-60 cells were centrifuged for 10 min at 300 g. The media were discarded and 0.1 mL of dimethyl sulfoxide and isopropanol mixture at a ratio of 1:1 (v/v) was added to each well to dissolve the crystallized formazan. The absorbance at 570 nm was measured by a microplate reader (Eppendorf, Hamburg, Germany).

[2] = tested on: HEK 293T (transformed human embryonic kidney cells); format: cell-based; settings: MTT after 48 h, DMEM/F12 with 10% FBS, mean ± SD of at least three independent experiments
Experimental: as §2, §3, §4

[3] = tested on: A549 (human lung carcinoma cells); format: cell-based; settings: MTT after 48 h, DMEM/F12 with 10% FBS, mean ± SD of at least three independent experiments
Experimental: as §2, §3, §4

[4] = tested on: HeLa (human cervix adenocarcinoma cells); format: cell-based; settings: MTT after 48 h, DMEM/F12 with 10% FBS, mean ± SD of at least three independent experiments
Experimental: as §2, §3, §4

[5] = tested on: NHA (normal human astrocytes); format: cell-based; settings: NHA normal cells; MTT after 48 h, DMEM/F12 with 10% FBS; mean ± SD of at least three independent experiments
Experimental: as §2, §3, §4

[6] = tested on: HEF (human embryonic fibroblasts); format: cell-based; settings: HEF normal cells; MTT after 48 h, DMEM/F12 with 10% FBS; mean ± SD of at least three independent experiments
Experimental: as §2, §3, §4

[7] = tested on: SK-BR-3 (human breast adenocarcinoma cells); format: cell-based; settings: MTT after 48 h, DMEM/F12 with 10% FBS, mean ± SD of at least three independent experiments
Experimental: as §2, §3, §4

[8] = tested on: Gram-negative and Gram-positive bacteria; settings: natural and synthetic peptides; cited from earlier work
Experimental: Our experimental data for the obtained recombinant PM I are in line with those obtained earlier for synthetic PM I against Gram-negative and Gram-positive bacteria (with reported MICs not exceeding 1 μM).

S. aureus ATCC 29213 = assay: Antimicrobial assay, broth microdilution MIC; format: cell-based, Staphylococcus aureus; settings: S. aureus ATCC 29213, Gram +, MH medium with NaCl, 24 h 37 °C, median of three independent triplicated experiments
Experimental: as §1

S. aureus 209P = assay: Antimicrobial assay, broth microdilution MIC; format: cell-based, Staphylococcus aureus; settings: Gram +, MH medium with NaCl, 24 h 37 °C, median of three independent triplicated experiments
Experimental: as §1

| Structure (SMILES) | MICs (K. pneumoniae (CI 287)) [µM] | IC50 [1] [µM] | IC50 [2] [µM] | IC50 [3] [µM] | IC50 [4] [µM] | IC50 [5] [µM] | IC50 [6] | IC50 [7] [µM] | MICs [8] | MICs (S. aureus ATCC 29213) [µM] | MICs (S. aureus 209P) [µM] |
| --- | --- | --- | --- | --- | --- | --- | --- | --- | --- | --- | --- |
| CC(C)[C@@H]1NC(=O)[C@H](CCCNC(=N)N)NC(=O)[C@H](Cc2ccccc2)NC(=O)[C@@H](NC(=O)[C@H](Cc2c[nH]c3ccccc23)NC(=O)[C@H](CCCNC(=N)N)NC(=O)[C@@H](N)CCCNC(=N)N)CSSC[C@@H](C(=O)N[C@@H](CCCNC(=N)N)C(=O)O)NC(=O)[C@H](CCCCN)NC(=O)[C@H](CCCNC(=N)N)NC(=O)[C@H](Cc2ccc(O)cc2)NC(=O)[C@@H]2CSSC[C@H](NC1=O)C(=O)N[C@@H](Cc1ccc(O)cc1)C(=O)N[C@@H](CCCNC(=N)N)C(=O)NCC(=O)N[C@@H](Cc1ccccc1)C(=O)N2 [PM I, polyphemusin I] (H-RRWCFRVCYRGFCYRKCR-OH; disulfide 4-17, 8-13 (inferred); N-terminus assumed) | 0.5 | 7.2 ± 0.5 | 9.4 ± 1.5 | 8.8 ± 1.3 | 12.5 ± 0.9 | 14.5 ± 1.6 | 8.3 ± 0.7 µM | 16 ± 0.6 | exceeding 1 μM | 4 | 0.5 |
| CC(C)[C@@H]1NC(=O)[C@H](CCCNC(=N)N)NC(=O)[C@H](Cc2ccccc2)NC(=O)[C@@H](NC(=O)[C@H](Cc2c[nH]c3ccccc23)NC(=O)[C@H](CCCNC(=N)N)NC(=O)[C@@H](N)CCCNC(=N)N)CSSC[C@@H](C(=O)N[C@@H](CCCNC(=N)N)C(=O)O)NC(=O)[C@H](CCCCN)NC(=O)[C@H](CCCNC(=N)N)NC(=O)[C@H](Cc2ccc(O)cc2)NC(=O)[C@@H]2CSSC[C@H](NC1=O)C(=O)N[C@@H](Cc1ccc(O)cc1)C(=O)N[C@@H](CCCCN)C(=O)NCC(=O)N[C@@H](Cc1ccccc1)C(=O)N2 [PM II, polyphemusin II] (H-RRWCFRVCYKGFCYRKCR-OH; disulfide 4-17, 8-13 (inferred); N-terminus assumed) | 0.5 | 7.2 ± 0.5 | 11.3 ± 1.6 | 10.8 ± 1.9 | 16.4 ± 1.3 | 18.3 ± 1.4 | 7 µM and 9.7 µM | 17.3 ± 0.6 | exceeding 1 μM | 4 | 0.5 |
| CC(C)[C@@H]1NC(=O)[C@H](CCCNC(=N)N)NC(=O)[C@H](Cc2ccccc2)NC(=O)[C@@H](NC(=O)CNC(=O)[C@H](CCCNC(=N)N)NC(=O)[C@@H](N)CCCNC(=N)N)CSSC[C@@H](C(=O)N[C@@H](CCCNC(=N)N)C(=O)O)NC(=O)[C@H](CCCNC(=N)N)NC(=O)[C@H](CCC(N)=O)NC(=O)[C@H](Cc2ccccc2)NC(=O)[C@@H]2CSSC[C@H](NC1=O)C(=O)N[C@@H](Cc1ccc(O)cc1)C(=O)N[C@@H](CCCNC(=N)N)C(=O)NCC(=O)N[C@@H](Cc1ccccc1)C(=O)N2 [PM III, polyphemusin III] (H-RRGCFRVCYRGFCFQRCR-OH; disulfide 4-17, 8-13 (inferred); N-terminus assumed) | 2 | 2.5 ± 0.1 | 7.3 ± 0.4 | – | 6 ± 0.2 | 7.5 ± 0.5 | 7 ± 0.4 µM | 9.9 ± 0.1 | – | 16 | 2 |
| CC[C@H](C)[C@@H]1NC(=O)CNC(=O)[C@H](CCCNC(=N)N)NC(=O)[C@H](Cc2ccc(O)cc2)NC(=O)[C@@H]2CSSC[C@H](NC1=O)C(=O)N[C@@H](Cc1ccc(O)cc1)C(=O)N[C@@H](CCCNC(=N)N)C(=O)N[C@@H](CCCNC(=N)N)C(=O)N[C@H](C(=O)N[C@@H](CCCNC(=N)N)C(=O)O)CSSC[C@H](NC(=O)[C@H](Cc1c[nH]c3ccccc13)NC(=O)[C@@H](N)CCCCN)C(=O)N[C@@H](Cc1ccccc1)C(=O)N[C@@H](CCCNC(=N)N)C(=O)N[C@@H](C(C)C)C(=O)N2 [TP I, tachyplesin I] (H-KWCFRVCYRGICYRRCR-OH; disulfide 3-16, 7-12 (inferred); N-terminus assumed) | 0.5 | 4.8 ± 0.3 | 23.5 ± 1.2 | 26.5 ± 1.2 | 24.2 ± 1.7 | 24.7 ± 1.8 | 13 ± 1.5 µM | 30.1 ± 1.9 | exceeding 1 μM | 8 | 0.5 |
| CC[C@H](C)[C@@H]1NC(=O)CNC(=O)[C@H](CCCNC(=N)N)NC(=O)[C@H](Cc2ccc(O)cc2)NC(=O)[C@@H]2CSSC[C@H](NC1=O)C(=O)N[C@@H](Cc1ccc(O)cc1)C(=O)N[C@@H](CCCNC(=N)N)C(=O)N[C@@H](CCCCN)C(=O)N[C@H](C(=O)N[C@@H](CCCNC(=N)N)C(=O)O)CSSC[C@H](NC(=O)[C@H](Cc1c[nH]c3ccccc13)NC(=O)[C@@H](N)CCCNC(=N)N)C(=O)N[C@@H](Cc1ccccc1)C(=O)N[C@@H](CCCNC(=N)N)C(=O)N[C@@H](C(C)C)C(=O)N2 [TP II, tachyplesin II] (H-RWCFRVCYRGICYRKCR-OH; disulfide 3-16, 7-12 (inferred); N-terminus assumed) | 1 | 5.6 ± 0.5 | 24.6 ± 1.7 | 28.1 ± 1.7 | 24.4 ± 3 | 29.4 ± 1.7 | 17.7 ± 1.2 µM | 34 ± 1.3 | exceeding 1 μM | 8 | 0.5 |
| CC[C@H](C)[C@@H]1NC(=O)CNC(=O)[C@H](CCCNC(=N)N)NC(=O)[C@H](Cc2ccc(O)cc2)NC(=O)[C@@H]2CSSC[C@H](NC1=O)C(=O)N[C@@H](Cc1ccc(O)cc1)C(=O)N[C@@H](CCCNC(=N)N)C(=O)N[C@@H](CCCCN)C(=O)N[C@H](C(=O)N[C@@H](CCCNC(=N)N)C(=O)O)CSSC[C@H](NC(=O)[C@H](Cc1c[nH]c3ccccc13)NC(=O)[C@@H](N)CCCCN)C(=O)N[C@@H](Cc1ccccc1)C(=O)N[C@@H](CCCNC(=N)N)C(=O)N[C@@H](C(C)C)C(=O)N2 [TP III, tachyplesin III] (H-KWCFRVCYRGICYRKCR-OH; disulfide 3-16, 7-12 (inferred); N-terminus assumed) | 0.5 | 5 ± 0.4 | 19.7 ± 1.9 | 15.3 ± 1 | 13.7 ± 1.3 | 21.3 ± 1.2 | 14.1 ± 1.2 µM | 27.5 ± 0.8 | – | 16 | 0.5 |
